Legend:
Conditions in all cases: 72 h
[1] = test system: U2OS; assay: drug sensitivity score (DSS) for viability; higher = more toxic; extreme values may be limits of the assay
[2] = test system: Vero E6; assay: as above
[3] = test system: Calu-3; assay: as above
[4] = test system: Caco-2; assay: as above
[5] = test system: HepG2; assay: as above
[6] = test system: U2OS; assay: relative viability EC50 (midpoint between 100% and the lowest measured viability); higher = less toxic
[7] = test system: Caco-2; assay: as above
[8] = test system: HepG2; assay: as above
[9] = test system: U2OS; assay: cell viability relative to DMSO; higher = less toxic
[10] = test system: Vero E6; assay: as above
[11] = test system: Calu-3; assay: as above
[12] = test system: Caco-2; assay: as above
[13] = test system: HepG2; assay: as above
[14] = test system: Calu-3; assay: relative viability EC50 (midpoint between 100% and the lowest measured viability); higher = less toxic
[15] = test system: Vero E6; assay: as above

SMILES	drug sensitivity score [1]	drug sensitivity score [2]	drug sensitivity score [3]	drug sensitivity score [4]	drug sensitivity score [5]	relative viability EC50 [6] [µM]	relative viability EC50 [7] [µM]	relative viability EC50 [8] [µM]	cell viability ([9]; 1 nM) [%]	cell viability ([9]; 10 nM) [%]	cell viability ([9]; 100 nM) [%]	cell viability ([9]; 1000 nM) [%]	cell viability ([9]; 10000 nM) [%]	cell viability ([10]; 1 nM) [%]	cell viability ([10]; 10 nM) [%]	cell viability ([10]; 100 nM) [%]	cell viability ([10]; 1000 nM) [%]	cell viability ([10]; 10000 nM) [%]	cell viability ([11]; 1 nM) [%]	cell viability ([11]; 10 nM) [%]	cell viability ([11]; 100 nM) [%]	cell viability ([11]; 1000 nM) [%]	cell viability ([11]; 10000 nM) [%]	cell viability ([12]; 1 nM) [%]	cell viability ([12]; 10 nM) [%]	cell viability ([12]; 100 nM) [%]	cell viability ([12]; 1000 nM) [%]	cell viability ([12]; 10000 nM) [%]	cell viability ([13]; 1 nM) [%]	cell viability ([13]; 10 nM) [%]	cell viability ([13]; 100 nM) [%]	cell viability ([13]; 1000 nM) [%]	cell viability ([13]; 10000 nM) [%]	relative viability EC50 [14] [µM]	relative viability EC50 [15] [µM]
Nc1nc(=O)n([C@H]2C[C@H](O)[C@@H](CO)O2)cc1F [fdcyd]	0.1	7	3.4	0.1	14.8	> 10	> 10	0.0346	102	106	95.8	104	86.2	99.3	105	90.7	66.4	54.9	85.1	108	84.1	85.5	68.3	93.4	106	94.9	113	86.1	117	89.8	60.1	55.2	49.8	–	–
COC(=O)[C@H](CC(C)C)NC(=O)[C@@H](N)CC(C)C [leucylleucine-methyl-ester]	–	–	0	0	–	–	> 10	–	–	–	–	–	–	–	–	–	–	–	98.1	107	86.9	99.6	98.5	98.1	102	94.5	104	103	–	–	–	–	–	> 10	–
COc1ccc(C(=O)c2ccccc2)c(O)c1 [oxybenzone]	0	–	–	0	0	> 10	> 10	> 10	103	103	101	98.2	100	–	–	–	–	–	–	–	–	–	–	99.6	94.4	98.9	101	97.8	112	112	98.9	114	103	–	–
CCCC(C)C1(CC)C(=O)NC(=O)NC1=O (centres undefined) [pentobarbital]	0	0	0	0.8	–	> 10	> 10	–	104	97.1	99.7	93.9	99.1	102	94.4	96.5	106	100	106	90.3	109	107	94.1	94.8	90.8	88.3	89.1	93.9	–	–	–	–	–	> 10	> 10
C[C@]12CC[C@H](O)C[C@H]1CC[C@@H]1[C@@H]2CC[C@]2(C)[C@@H](c3ccc(=O)oc3)C[C@H]3O[C@]132 [resibufogenin]	5.1	16	3	4.9	3.2	3.23	2.59	–	97	104	98.9	101	6.5	106	101	102	11.3	2.1	102	94.8	106	99.4	45.7	96.3	98.8	106	94.7	25.1	115	100	109	90.5	63.6	3.09	0.426
C=C[C@]1(C)C[C@@H](OC(=O)CS[C@@H]2C[C@H]3CC[C@@H](C2)N3C)[C@]2(C)[C@H](C)CC[C@]3(CCC(=O)[C@H]32)[C@@H](C)[C@@H]1O [retapamulin]	0	0	0	0	2.6	> 10	> 10	–	103	98.4	102	101	99.1	94.9	101	90.4	93.9	91.5	107	98.5	104	98.2	97.8	94.7	98.2	112	92.8	98.8	96.9	101	89.4	85.9	74	> 10	> 10
C#CCN(C)[C@H](C)Cc1ccccc1 [selegiline]	0	0	0	–	0	–	–	–	–	–	–	–	–	–	–	–	–	–	–	–	–	–	–	–	–	–	–	–	–	–	–	–	–	–	–
O=C(NN1C(=O)[C@@H]2[C@@H]3C=C[C@@H]([C@H]4C[C@@H]34)[C@@H]2C1=O)c1ccc(C(F)(F)F)cc1 [tecovirimat]	0	0	0	0	–	> 10	> 10	–	107	107	107	99.6	104	98.5	104	93	95.3	101	99.7	90.3	103	98.8	100	109	104	105	101	94.2	–	–	–	–	–	> 10	> 10
Cc1ccc(S(=O)(=O)NC(=O)NN2CCCCCC2)cc1 [tolazamide]	0	0	0	0	–	> 10	> 10	–	100	97	97	99.2	103	98.9	86.3	95.5	98.3	107	92.2	96.2	88	79.5	93.3	95.6	95	102	93.8	89.7	–	–	–	–	–	> 10	> 10
